Experimental data from the NIST ThermoML archive (doi:10.1021/je0601513).
Numbers after ± are expanded uncertainties.

Assays:
[1] = 101.33 kPa, Liquid; for viscosity: Capillary tube (Ostwald / Ubbelohde) method
[2] = molar heat capacity at constant pressure; details: 101.33 kPa, Liquid, Small sample (50 mg) DSC
[3] = refractive index (Na D-line) (dimensionless); details: 101.33 kPa, Liquid, Standard Abbe refractometry

Compound | mass density ([1]; 288.15 K) [kg/m3] | viscosity ([1]; 288.15 K) [mPa·s] | mass density ([1]; 298.15 K) [kg/m3] | viscosity ([1]; 298.15 K) [mPa·s] | mass density ([1]; 308.15 K) [kg/m3] | viscosity ([1]; 308.15 K) [mPa·s] | molar heat capacity at constant pressure ([2]; 288.15 K) [J/K/mol] | molar heat capacity at constant pressure ([2]; 293.15 K) [J/K/mol] | molar heat capacity at constant pressure ([2]; 298.15 K) [J/K/mol] | molar heat capacity at constant pressure ([2]; 303.15 K) [J/K/mol] | molar heat capacity at constant pressure ([2]; 308.15 K) [J/K/mol] | molar heat capacity at constant pressure ([2]; 313.15 K) [J/K/mol] | molar heat capacity at constant pressure ([2]; 318.15 K) [J/K/mol] | molar heat capacity at constant pressure ([2]; 323.15 K) [J/K/mol] | molar heat capacity at constant pressure ([2]; 328.15 K) [J/K/mol] | molar heat capacity at constant pressure ([2]; 333.15 K) [J/K/mol] | refractive index ([3]; 288.15 K) | refractive index ([3]; 298.15 K) | refractive index ([3]; 308.15 K)
CCCO [propan-1-ol] | 807.51 ± 0.28 | 2.498 ± 0.028 | 799.54 ± 0.29 | 1.952 ± 0.022 | 791.41 ± 0.3 | 1.564 ± 0.018 | 139 ± 2 | 142.3 ± 2.2 | 144.9 ± 2.2 | 148.2 ± 2.3 | 151 ± 2.3 | 153.7 ± 2.4 | 157.1 ± 2.4 | 160.1 ± 2.5 | 164.5 ± 2.6 | 167.8 ± 2.6 | 1.3893 ± 0.0007 | 1.3837 ± 0.0006 | 1.3795 ± 0.0005
C[S+](C)[O-] [dimethyl sulfoxide] | 1105.39 ± 0.47 | 2.473 ± 0.029 | 1095.36 ± 0.45 | 1.989 ± 0.023 | 1085.31 ± 0.43 | 1.644 ± 0.019 | 146.8 ± 2.3 | – | 152.4 ± 2.4 | – | 154.6 ± 2.4 | – | – | – | – | – | 1.4835 ± 0.0007 | 1.4778 ± 0.0006 | 1.473 ± 0.0006
